A short description of series [1]: mouse plasma and brain levels. In kind it is in vivo. Particulars: 10 mg/kg ip 2h.
Another series deals with p38 (Homo sapiens, UniProt Q16539). Nature of the series: p38 biochemical inhibition / selectivity. The settings on record: for selectivity over p38: JNK3 vs p38.
Another series can be described thus: rat pharmacokinetics. Type of series: in vivo.

Sequence of p38 (Q16539 whole entry): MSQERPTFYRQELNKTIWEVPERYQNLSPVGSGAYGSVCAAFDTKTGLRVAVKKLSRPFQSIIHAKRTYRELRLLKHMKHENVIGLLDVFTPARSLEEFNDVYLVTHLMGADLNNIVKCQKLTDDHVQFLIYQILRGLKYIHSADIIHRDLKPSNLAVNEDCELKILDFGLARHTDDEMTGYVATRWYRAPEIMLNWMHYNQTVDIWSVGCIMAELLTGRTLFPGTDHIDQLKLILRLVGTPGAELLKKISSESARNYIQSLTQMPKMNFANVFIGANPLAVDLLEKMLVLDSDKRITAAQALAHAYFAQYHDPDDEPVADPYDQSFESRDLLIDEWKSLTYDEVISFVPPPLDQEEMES

For the compound `Cn1cc(-c2ccc3cnc(Nc4ccc(-n5cnc(N6CCOCC6)n5)cc4)nc3c2)cn1` [compound 3], the “mouse [brain]” value in series [1] was found to be 7.2 µM.

For `Cn1cc(-c2ccc3cnc(Nc4ccc(-n5cnc(N6CCOCC6)n5)cc4)nc3c2-c2cnn(C)c2)cn1` [14d], at p38, the IC50 is more than 20 µM and the “selectivity over p38” value is reported as more than 2200 fold.

Regarding `Cc1ncn(-c2ccc(Nc3ncc4cccc(-c5nccs5)c4n3)cc2)n1` [9g], in “rat pharmacokinetics” (data not shown, species not given), the PK properties result is listed as “poor”.

`Cn1cc(-c2ccc3cnc(Nc4ccc(-n5cnc(N6CCOCC6)n5)cc4)nc3c2Cl)cn1` [13a]: at p38, the “selectivity over p38” value is given as more than 500 fold. This compound also gave a clearance in “rat pharmacokinetics” (rat, plasma, iv, 1 mg/kg) of 6 mL/min/kg.

With `Cc1ccc(-c2cccc3cnc(Nc4ccc(-n5cnc(N6CCOCC6)n5)cc4)nc23)cn1` [9a], the “mouse [plasma]” value in series [1] is given as 2.72 µM.

As a reminder, the IC50 is the midpoint of a concentration-inhibition curve. A word on the clearance: it is a measure of how efficiently the substance is removed, as volume per time. Read a low clearance as a low capacity for elimination.
